Test system: rats
Experiment: Chronic (10 day) dosing behavioral tests in rats
Details: for acoustic startle reactivity: 50 mg/kg
Protocol: The effects of chronic dosing of nepicastat in rats were examined. Between three and thirteen days prior to the first dosing day the rats were placed inside the startle apparatus and after a five minute acclimation period they were presented with a 118 dB noise burst on average once a minute (a variable inter-trial interval ranging between 30 and 90 seconds will be used) for 20 minutes. The startle responses were measured and a mean for the last twenty startle response was calculated for each rat.
The following behavioral tests were administered during and after chronic dosing; body core temperature, motor activity, acoustic startle reactivity, and pre-pulse inhibition of acoustic startle.
The animals were tested in an enclosed room with a white noise generator running Motor activity tests were conducted immediately after the body core temperature reading taken on dosing day ten (about 3 hours and 35 minutes after the morning daily dose of nepicastat, and SKF-102698, and 20 minutes prior to the daily administration of clonidine and d-amphetamine on dosing day ten). Motor activity tests were run for one hour. A diagnostic program was run on each of the motor activity chambers prior to each test session to assure that the photo beams and light sensors were operating properly. […] D-amphetamine was used as the positive control for this assay.
Rat body core temperatures were obtained by inserting the rectal probe 2 cm into the colon of each rat. Each rat's body core temperature was measured three times and the average of the three reading was calculated. Body core temperature readings were obtained immediately prior to the ten day chronic dosing schedule (to obtain a baseline), and three and half hour after the morning daily dose of nepicastat, and SKF-102698, and 15 minutes prior to the daily administration of clonidine and d-amphetamine, on dosing days one, five and ten. […] Both clonidine (an alpha2 agonist), and d-amphetamine (a dopamine releaser) were used as the positive controls for this assay.
Acoustic startle reactivity (a series of muscle contractions elicited by an intense burst of noise with a rapid onset), and pre-pulse inhibition (sensorimotor gating measured by analyzing any decrease in startle reactivity which occurs when a startling stimulus is immediately preceded by a non startling stimulus) were both measured in eight SR-Lab (San Diego Instruments, San Diego, Calif.) test stations. The rats were placed individually in a Plexiglas cylinder (10 cm diameter) which was housed in a ventilated sound-attenuating enclosure. Acoustic noise bursts (a broad band noise with a rise time and fall time of 1 msec) were presented via a speaker mounted 30 cm above the animal. Also, these speakers produced a 68 dB level of background noise throughout all test sessions. A piezoelectric accelerometer attached below the plexiglass cylinder transduced the subject's movement into a voltage which was then rectified and digitized (on a scale from 0 to 4095) by a PC computer equipped with SR-Lab software and interface assembly. A decibel meter was used to calibrate the speakers in each of the eight test station to ±1% of the mean. Additionally, a SR-Lab calibrating instrument was used to calibrate each of the eight startle detection apparatuses to ±2% of the mean. Startle reactivity and pre-pulse inhibition tests were run concurrently immediately alter the motor activity test (about 4 hours and 40 minutes after the morning daily injection of nepicastat, and SKF-102698, and 10 minutes after a supplemental administration of clonidine and d-amphetamine on dosing day ten).

SMILES	body core temperature (rat, in vivo)	pre-pulse inhibition (rat, in vivo)	acoustic startle reactivity (rat, in vivo)	pre-pulse inhibition (dosing day ten)	locomotor activity vs vehicle (dosing day ten, nepicastat 5, 15, 50, SKF-102698 50 mg/kg bid, clonidine 20 μg/kg, d-amphetamine 2 mg/kg bid)
Cl.NCc1c[nH]c(=S)n1[C@H]1CCc2c(F)cc(F)cc2C1 [nepicastat, (S)-5-Aminomethyl-1-(5,7-difluoro-1,2,3,4-tetrahydronaphth-2-yl)-2,3-dihydro-2-thioxo-1H-imidazole hydrochloride]	unaffected	None of the nepicastat dose groups were significantly different	significantly higher startle response than the SKF-102698	–	–
Fc1cc(F)cc(Cn2cc[nH]c2=S)c1 [SKF-102698, reference compound]	–	marginally higher percent prepulse inhibition	significantly lower startle response compared to cyclodextrin	Neither d-amphetamine nor SKF-102698 was significantly different	significantly lower locomotor activity
